Source: patent US20260344662A1, “METHOD FOR INDUCING HIGH-TEMPERATURE STRESS TOLERANCE IN PLANTS” (AJINOMOTO CO., INC., priority 2023, published 2026)

Experiments:
[1] = system: SLHsFA2; test: Example 3: expression of heat stress tolerance-related gene SLHsFA2 (real-time PCR); format: in vivo, tomato (cultivar: Regina); settings: 5 mM Val; 10 μM IAA; 50 μM PAA; combinations 5 mM Val + 10 μM IAA, 5 mM Val + 50 μM PAA; 24 hours after spraying; n=3; relative to Actin
Procedure: (§1) Plants of tomato (cultivar: Regina) were used in evaluation of the genes.
(§2) Two tomato seeds were sown in a slit pot having a diameter of 10.5 cm (10.5 cm (top diameter)×8.8 cm (height)) filled with potting soil, and cultivated in a biotron at a temperature of 23 °C, with a light period of 14 hours (6:00 to 20:00) and a dark period of 10 hours (20:00 to 6:00). As the potting soil, a mixture of Kumiai Nippi Engei Baido No. 1 (Nihon Hiryo Co., Ltd.) and vermiculite at 3:1 (volume ratio) was used. After one week, thinning was performed to leave one plant, and cultivation was continued.
(§3) The material was dissolved in water before use. Twenty-five days after the sowing, 0.1% spreading agent “Approach BI” (Kao Corporation) was added to the material treatment solution, and the resulting solution was sprayed over the entire plant. For each treatment group, three tomato plants were used, and 2 mL of the treatment solution per plant was sprayed. Twenty-four hours after the spraying, a 1.5 cm×1.5 cm section was collected as a sample from the second true leaf.
(§4) From each leaf sample collected from tomato, RNA was extracted using a Maxwell™ RSC Plant RNA Kit (Promega) according to the manufacturer's instructions. Subsequently, single-stranded cDNA was synthesized from the extracted RNA using a ReverTra Ace™ qPCR RT Master Mix (TOYOBO). As genes associated with heat stress tolerance in tomato, the following two genes were evaluated: Heat shock factor A2 (HsFA2) and Ascorbate peroxidases (APX). Using the above cDNA as a template, real-time PCR was performed using the primers shown in Table 6, and the expression level of each gene was calculated as a relative expression level with respect to the Actin gene.

[2] = system: SLAPX; test: Example 3: expression of heat stress tolerance-related gene SLAPX (real-time PCR); format: in vivo, tomato (cultivar: Regina); settings: 5 mM Val; 10 μM IAA; 50 μM PAA; combinations 5 mM Val + 10 μM IAA, 5 mM Val + 50 μM PAA; 24 hours after spraying; n=3; relative to Actin
Procedure: as §1, §2, §3, §4

[3] = system: plant male sterility caused by high temperatures; settings: in vivo; cited from earlier work
[4] = system: tomato; test: Example 1: heat stress tolerance of tomato (number of fruits) with Val and/or IAA; format: in vivo, cultivar Regina; settings: heat stress max 35 °C; foliar spray; Val 5 mM or 10 mM; IAA 10 μM; Val 5 mM & IAA 10 μM
Procedure: In the present Example, Val (valine) and IAA (indole-3-acetic acid) were applied to tomato either alone or in combination, and heat stress tolerance-inducing effects were evaluated.
• Tomato: cultivar Regina
Two tomato seeds were sown in a pot (Sakata) having a soil diameter of 10.5 cm and containing 350 g of a mixed soil of potting soil (Kumiai No. 1) and vermiculite (potting soil:vermiculite=3:1 (v:v)). Two weeks later, the tomato plants were thinned to leave one plant. Thirty-five days after the sowing, soil fertilization was performed with 100 mL of a 500-fold diluted Hyponex solution. Water supplementation was performed as appropriate.
The non-heat stress treatment+water treatment group (No. 1) was used as a positive control. The heat stress treatment groups included five treatment groups (Nos. 2 to 6). The material treatment and the heat treatment were performed in two separate sets. The first set of material treatment was performed 40 days after the sowing, when flowering of the tomato plants had started. The second set of material treatment was performed 46 days after the sowing. The material treatment was performed by preparing an aqueous material solution containing 0.1% spreading agent “Approach BI”, and performing foliar spraying. To each tomato plant, 6 mL of the aqueous material solution was sprayed. […]

[5] = system: rice; test: Example 5: rice pot test, seed weight and seed fertility under heat stress; format: in vivo, cultivar Nipponbare; settings: PAA 10 μM; for fertile seed weight compared to water treatment (in words) / seed fertility compared to water treatment (in words) / total seed weight compared to water treatment (in words) / Fertile seed weight, relative value to heat treatment + water treatment group / Fertility (seed fertility), relative value to heat treatment + water treatment group / Total seed weight, relative value to heat treatment + water treatment group: Val 5 mM; for Fertile seed weight, relative value to heat treatment + water treatment group / Fertility (seed fertility), relative value to heat treatment + water treatment group / Total seed weight, relative value to heat treatment + water treatment group: heat treatment (38 °C), water = 100%
Procedure: • Rice cultivar: Nipponbare
Prior to sowing, rice seeds were sterilized with 25% antiformin and 70% ethanol. Filter paper was placed in a Petri dish, and rice seeds were placed on the filter paper. The filter paper was sufficiently wetted with sterile water, and the rice seeds were germinated in a dark place at 25 °C. Six days after the sowing, the germinated rice seeds were planted in a cell tray. As the potting soil in the cell tray, a mixed soil of Kumiai Baido No. 1: vermiculite=7:3 (v/v) was used. The rice plants planted in the cell tray were cultivated in a chamber under the following conditions: 14 h/light period at 28 °C and 10 h/dark period at 22 °C.
On June 20, rice seedlings cultivated in the chamber for 18 days were transplanted to magnet pots, and cultivated until harvest in an outdoor cultivation water tank apparatus. In the magnet pots, 2.3 kg of a potting soil of Kumiai Baido No. 1: vermiculite=7:3 (v/v) was used, and two rice seedlings were transplanted to each pot. During the cultivation, water was appropriately managed. From one month after the transplantation, additional fertilizer was applied with ammonium sulfate and Hyponex three times at intervals of one week.
At the heading stage, one week after the start of heading of rice, material spraying and heat treatment were each performed twice at intervals of one week. The heat treatment was performed about 16 hours after the spraying of a material. Five pots were included in each treatment group as replicates. The material was diluted with water to prepare a treatment solution, and 0.1% spreading agent “Approach BI” (Kao Corporation) was added to the treatment solution, followed by spraying 60 mL per pot of the prepared aqueous material solution onto the whole plants. For the heat treatment, the rice plants were placed in a mini-house for 6 hours from 10:00 to 16:00, and the temperature was about 37 °C to 39 °C. After completion of the heat treatment, the plants were further cultivated, and on October 8, […] after transplanting to Wagner pots, an aboveground part of each plant was cut and harvested.
The cut aboveground parts of the plants, including seeds, were dried for 15 days, and the total seed weight, the fertile seed weight, and the seed fertility were examined. The fertile seed weight is the weight of seeds obtained by removing sterile seeds of empty husks using a threshing machine. From the total seeds, 10 mL of seeds (about 100 to 150 grains) was randomly taken out into a 50-mL Falcon tube, and fertile seeds and sterile seeds were separated from each other, followed by counting their numbers. The proportion (percentage) of the fertile seeds to the total number of seeds was defined as the seed fertility.

[6] = system: tomato; test: Example 4: tomato pot test, harvested fruit weight under heat stress; format: in vivo, tomato: Home Momotaro, rootstock (Boranchi); settings: PAA 10 μM, Val 5 mM, PAA higher than Val
Procedure: • Tomato: Home Momotaro, rootstock (Boranchi).
Sandy loam (SL) was filled into a planter at 0.18 m^2/planter, and two tomato plants were planted therein. As a fertilizer, OK-F-1 (OAT Agrio Co., Ltd.) was used. The fertilizer was diluted 2000-fold with water, and applied as appropriate at 2000 mL/plant/application. Topping was performed with one leaf left above the fourth truss, and axillary buds were removed as appropriate. Cultivation was performed in a glasshouse under natural light.
Five treatment groups were evaluated (Table 7). The water-treated non-heat stress treatment group was used as a positive control. The other four treatment groups were subjected to heat treatment. The heat treatment was performed twice. The first treatment was performed for 10 days at the pre-flowering stage of the first truss, and the second treatment was performed for 10 days at the flowering stage of the fourth truss. The heat treatment was performed by opening and closing side windows and roof windows of the glasshouse (with a target maximum temperature of 35 °C in the glasshouse).
The material was applied by spraying onto stems and leaves at 50 mL per plant on the start day of the heat treatment and three days thereafter. To each material, a spreading agent (Approach BI (Kao)) was added to a final concentration of 0.05%.
Harvesting and examination were performed 11 times until the fourth truss matured. […]

[7] = system: tomato; test: Example 2: heat stress tolerance of tomato (number and weight of fruits) with Val and/or PAA; format: in vivo, cultivar Regina; settings: Val 5 mM, PAA 10 μM
Procedure: In the present Example, Val (valine) and PAA (phenylacetic acid) were applied to tomato plants individually or in combination, and their heat stress tolerance-inducing effects were evaluated.
Same as in Example 1, except that the five treatment groups shown in Table 3 were evaluated under the cultivation conditions shown in Table 4 (the maximum high temperature was 37 °C).

[8] = system: plants; settings: in vivo; cited from earlier work

O=C(O)Cc1c[nH]c2ccccc12 [IAA, indole-3-acetic acid]
expression of SLHsfA2 compared to Mock (water) [1]: no difference in expression
expression of SLAPX compared to Mock (water) [2]: no difference in expression
reversal of plant male sterility caused by high temperatures [3]: function of reversing plant male sterility caused by high temperatures
number of tomato fruits compared to heat stress treatment+water treatment group [4]: markedly increased

O=C(O)Cc1ccccc1 [PAA, phenylacetic acid]
increase in seed fertility ([5]; Val 5 mM & PAA 10 μM, heat treatment): ≥ 20%
fertile seed weight compared to water treatment (in words) ([5]; heat treatment): neither the treatment with Val alone nor the treatment with PAA alone showed significant differences
seed fertility compared to water treatment (in words) ([5]; heat treatment): increased the seed fertility
total seed weight compared to water treatment (in words) ([5]; heat treatment): neither the treatment with Val alone nor the treatment with PAA alone showed significant differences
Fertile seed weight, relative value to heat treatment + water treatment group [5]: 105.6%
Fertility (seed fertility), relative value to heat treatment + water treatment group [5]: 110.8%
Total seed weight, relative value to heat treatment + water treatment group [5]: 101.8%
expression of SLHsfA2 compared to Mock (water) [1]: no difference in expression
harvested fruit weight compared to water-sprayed heat stress group [6]: exceeded the water-sprayed group
expression of SLAPX compared to Mock (water) [2]: no difference in expression
number of tomato fruits compared to heat stress treatment+water treatment group [7]: no large difference

CC(C)[C@H](N)C(=O)O [Val, L-valine]
fertile seed weight compared to water treatment (in words) ([5]; heat treatment): neither the treatment with Val alone nor the treatment with PAA alone showed significant differences
seed fertility compared to water treatment (in words) ([5]; heat treatment): increased the seed fertility
total seed weight compared to water treatment (in words) ([5]; heat treatment): neither the treatment with Val alone nor the treatment with PAA alone showed significant differences
Fertile seed weight, relative value to heat treatment + water treatment group [5]: 98.7%
Fertility (seed fertility), relative value to heat treatment + water treatment group [5]: 123.9%
Total seed weight, relative value to heat treatment + water treatment group [5]: 93.9%
expression of SLHsfA2 compared to Mock (water) [1]: no difference in expression
induction of heat stress tolerance in plants [8]: function of inducing heat stress tolerance in plants
harvested fruit weight compared to water-sprayed heat stress group [6]: exceeded the water-sprayed group
expression of SLAPX compared to Mock (water) [2]: no difference in expression
number of tomato fruits compared to heat stress treatment+water treatment group [4]: markedly increased
number of tomato fruits compared to heat stress treatment+water treatment group [7]: no large difference
